In paper PMC8279484 (Journal of Medicinal Chemistry, 2021):

What was measured:
IL-6 = assay: LPS-induced IL-6 release from THP-1 Lucia monocytes (multiplex electrochemiluminescence); assay type: cell-based, human; settings: for IC50: Homo sapiens, THP-1; for IC50 / Imax, IL-6 release: LPS 50 ng/mL, 24 h; for Imax, IL-6 release: concentration–response
Experimental: (§1) LXA41 and all of the tested sLXms were dissolved in ethanol and further diluted in a culture medium (final ethanol concentration 0.1%; equivalent concentrations were used as the vehicle control). Prior to in vitro experiments, THP-1-Lucia NF-κB cells were harvested and plated at 1 × 10^5 cells/well on 96-well plates and left to settle in the incubator at 37 °C, 95% humidity, and 5% CO2, in 0.1% FBS-containing media, pretreated for 30 min with increasing doses of LXA41, sLXms (from 10^–12 to 10^–6 M), or appropriate controls, followed by stimulation with 50 ng/mL LPS for 24 h. Untreated (Unt) or vehicle-treated (Veh) cells were used as negative controls; 1 pM (1R)-5, the (1R)-epimer of the benzo-mimetic, was used as a positive control for any aromatic mimetic; and, finally, we compared the observed effects to the conventional glucocorticoid dexamethasone (Dex) treatment, at 1 μM.
(§2) After 24 h of exposure to LXA41, sLXms, or vehicle, followed by LPS stimulation (50 ng/mL), as described above, THP-1-Lucia NF-κB-cell supernatants were collected and cleared by centrifugation. Concentrations of IFN-γ, IL-1β, IL-6, IL-8, IL-10, IL-12p70, and TNF-α in culture supernatants were assessed by electro-chemi-luminescent detection, using a commercially available human 96-well plate “multiplex” (several analytes in the same well) kit for tissue culture samples, according to the manufacturers’ guidelines.
(§3) The “coding” of the heat-map indicates the arbitrary criteria to assign points to each single PD component (efficacy = Imax or Emax; potency = IC50 or EC50; slope = HS) to generate a final (aggregate) relative PD score. If a single PD component was greater than the reference level (x > 1), then the single-component relative score was arbitrarily set to +1 (light green) or +2 (dark green). If a single PD component was equal to the reference level (x = 1), then the single-component relative score was arbitrarily set to 0 (gray). If a single PD component was smaller than the reference level (x < 1), then the single-component relative score was arbitrarily set to −1 (light red) or −2 (dark red). If the curve of a single PD component was best fitting to a flat line (x = 0), then the single-component relative score was arbitrarily set to −4 (purple) (Table S1).

IL-1β = assay: LPS-induced IL-1β release from THP-1 Lucia monocytes (multiplex electrochemiluminescence); assay type: cell-based, human; settings: for IC50: Homo sapiens, THP-1
Experimental: as §1, §2, §3

IL-8 = assay: LPS-induced IL-8 release from THP-1 Lucia monocytes (multiplex electrochemiluminescence); assay type: cell-based, human; settings: Dex 1 μM; 1 1 nM; (R)-6 concentration not given
Experimental: as §1, §2

THP-1 LUCIA monocytes = assay: Extrinsic cytotoxicity: LDH release after LPS challenge; assay type: cell-based, human; settings: for % LDH release relative to LPS: LPS 24 h
Experimental: We investigated the potential cytotoxicity of all candidate sLXms by assaying LDH release.[50] The response to LPS was arbitrarily set to 100%, and values were expressed relative to this. As previously reported by others, LPS provokes LDH release.[51] […] Ultimately, untreated cells defined the spontaneous cell release thresholds.
Lactate dehydrogenase (LDH) was assayed in cell supernatants to investigate possible cytotoxicity of the lead compound. LDH is rapidly released into the culture medium after disruption of the plasma membrane.[67],[69] After 24 h of exposure to sLXms, vehicle, or controls, followed by LPS stimulation, as described above, THP-1-Lucia NF-κB-cell supernatants were collected and LDH was assayed. Cytotoxicity was evaluated relative to vehicle controls. Maximum releasable LDH was determined in cells lysed with 2% Triton-X-100 (Sigma-Aldrich, Ireland). LDH levels were assessed by reading the absorbance at 490 nm (protein) and 690 nm (background noise), using a spectrophotometer (SPECTRAMAX M2, Molecular Devices (U.K.) Limited).

C57BL/6J mice = assay: Murine zymosan-induced peritonitis; assay type: in vivo, mouse; settings: peritoneal lavage, n = 5 mice
Experimental: Male C57BL/6J mice of 9 weeks of age were purchased from Charles River (Kent, U.K.) and were housed in a specific pathogen-free facility in individually ventilated and filtered cages under positive pressure. Peritonitis was induced in mice by ip injection of zymosan (purchased from Sigma-Aldrich; 1 mg per mouse in 0.5 mL of phosphate-buffered saline (PBS)).[73] Mice were treated with dexamethasone (1 μg/g) purchased from Sigma-Aldrich 1 h prior to zymosan injection or (R)-6 (2 and 6 ng/g) (200 μL IP) 30 min prior to zymosan injection. Peritoneal cells were collected by lavage 4 h after injection of zymosan. The local Animal Use and Care Committee and The UK Home Office approved the animal experiments in accordance with the derivatives of both The Home Office Guidance on the Operation of Animals (Scientific Procedures) Act 1986 and The Guide for the Care and Use of Laboratory Animals of the National Research Council.
Surface marker expression on peritoneal cells was assessed by flow cytometry with data collection on a FACSCalibur (Becton Dickinson). Data were analyzed with FlowJo analysis software (Treestar Inc.). Cells were stained with AlexaFluor488 conjugated anti-F4/80 (clone BM8; eBioscience); APC conjugated anti-CD11b (clone M1/70; eBioscience) and Pacific blue conjugated anti-Ly6G (clone 1A8; BioLegend) antibodies. Prior to surface staining, peritoneal cells were counted manually (Neubauer chamber) with Turks solution. Using appropriate fluorescence minus one (FMO) controls, quadrants were drawn, and data were plotted on logarithmic-scale density- or dot-plots.

C57bl/6 mice = assay: Murine carrageenan-induced paw edema; assay type: in vivo, mouse; design: Paw swelling Index: Mean: unit not given here; settings: for % relative to carageenan-induced level: Veh = 100; for % relative to carageenan-induced level / % reduction relative to carageenan-induced level: (R)-6, (R)-17 2 μg/kg, Naproxen 50 mg/kg p.o.; for effect on inflammatory response (paw swelling), in words / Paw swelling Index: Mean: (R)-6, (R)-17 2 μg/kg ip, Naproxen 50 mg/kg po; for Paw swelling Index: Mean: n = 3
Experimental: Then, 50 μL of 1% carrageenan was injected with an equivalent volume of saline injected into the contralateral paw. Inflammation was presented as the difference in paw thickness over time using gauge (POCO 2T; Kroeplin, GmbH, Surrey, U.K.). Data are presented as mean ± SEM, n = 3 mice/treatment group.

NF-κB = system: NF-κB; design: method as in PMID 30213823; settings: LXA4 1 0.1 nM; 2 1 nM; cited from earlier work

| Compound | IC50 (IL-6) | Imax, IL-6 release (IL-6) | IC50 (IL-1β; LPS 50 ng/mL, 24 h) | enhancement of LPS-induced secretion of IL-8 (IL-8) | % relative to carageenan-induced level (C57bl/6 mice; 4h) | % relative to carageenan-induced level (C57bl/6 mice; 8h) | % relative to carageenan-induced level (C57bl/6 mice; 24h) | % relative to carageenan-induced level (C57bl/6 mice; 48h) | % reduction relative to carageenan-induced level (C57bl/6 mice; 72h) | % relative to carageenan-induced level (C57bl/6 mice; 72h) | effect on inflammatory response (paw swelling), in words (C57bl/6 mice) | Paw swelling Index: Mean (C57bl/6 mice; Time 4h, 1% carrageenan) | Paw swelling Index: Mean (C57bl/6 mice; Time 8h) | Paw swelling Index: Mean (C57bl/6 mice; Time 24h) | Paw swelling Index: Mean (C57bl/6 mice; Time 48h) | Paw swelling Index: Mean (C57bl/6 mice; Time 72h) | further results |
| --- | --- | --- | --- | --- | --- | --- | --- | --- | --- | --- | --- | --- | --- | --- | --- | --- | --- |
| CCCCC[C@@H](O)c1nc2ccccc2nc1/C=C/[C@@H](O)[C@@H](O)CCCC(=O)OC [(R)-6, Methyl (5S,6R,E)-5,6-Dihydroxy-8-(3-((R)-1-hydroxyhexyl)quinoxalin-2-yl)oct-7-enoate] | 1 pM | 84 ± 2% | 1 pM | 2.5 fold | 116% | 63% | 72% | 53% | 10% | 110% | significantly reduced | 0.08 | 0.25 | 0.63 | 0.21 | 0.11 | PD score, IL-6 release (IL-6; relative to LXA4 (1)): −2; rel. slope, IL-6 release (IL-6; relative to LXA4 (1)): 0.7; Imax, IL-1β release (IL-1β; concentration–response, LPS 50 ng/mL, 24 h): 73 ± 2%; PD score, IL-1β release (IL-1β; relative to LXA4 (1)): −2; rel. slope, IL-1β release (IL-1β; relative to LXA4 (1)): −0.03; attenuation of LPS-induced toxicity (LDH) (THP-1 LUCIA monocytes; LPS 50 ng/mL, 24 h, 1 pM–1 μM): 1.3- to 2.4 fold; % LDH release relative to LPS (THP-1 LUCIA monocytes; highest dose of (R)-6): 77 ± 10%; % LDH release relative to LPS (THP-1 LUCIA monocytes; lowest dose of (R)-6): 42 ± 4%; Total no of PMNs (C57BL/6J mice; (R)-6 2 μg/kg ip (low dose) + zymosan 40 mg/kg): 4.4 ± 1.1 × 10^6/mL; Total no of PMNs (C57BL/6J mice; (R)-6 6 μg/kg ip (high dose) + zymosan 40 mg/kg): 3.2 ± 0.7 × 10^6/mL; ΔΤR50: reduction of time taken to reduce the inflammatory response to 50% max (C57bl/6 mice; (R)-6 2 μg/kg ip, relative to vehicle-treated animals): 6 h |
| CCCCC[C@@H](O)c1nc2ccccc2nc1/C=C/[C@H]1OC(C)(C)O[C@H]1CCCC(=O)OC [(R)-17, Methyl 4-((4S,5R)-5-((E)-2-(3-((R)-1-Hydroxyhexyl)quinoxalin-2-yl)vinyl)-2,2-dimethyl-1,3-dioxolan-4-yl)butanoate] |  |  |  |  | 103% | 84% | 92% | 149% | 120% | 220% | no effect | 0.07 | 0.33 | 0.80 | 0.60 | 0.22 | % reduction relative to carageenan-induced level (C57bl/6 mice; 4h): 3%; % reduction relative to carageenan-induced level (C57bl/6 mice; 24h): -8%; % reduction relative to carageenan-induced level (C57bl/6 mice; 48h): 49% |
| CCCCC[C@H](O)/C=C/C=C\C=C\C=C\[C@@H](O)[C@@H](O)CCCC(=O)O [Compound 1, LXA4] | 1 pM | 99 ± 1% | 1 pM | 2.5 fold |  |  |  |  |  |  |  |  |  |  |  |  | effect on TNF-α-stimulated NF-κB activity (NF-κB): reduced TNF-α-stimulated NF-κB activity |
